Test results as given in patent US12122781B2, “Hydrates of polymorphs of 6-(1H-indazol-6-yl)-N-(4-morpholinophenyl)-2,3-dihydroimidazo[1,2-a]pyrazin-8-amine bis-mesylate as Syk inhibitors” (Kronos Bio, Inc., priority 2017, dated 2024).

Legend:
Type in all cases: physicochemical
[1] = Hygroscopicity by dynamic vapor sorption (DVS); conditions: up to 95% RH at 25° C.; bis-mesylate
Procedure: (§1) Hygroscopicity was studied using dynamic vapor sorption (DVS, TA Q5000 SA, TA Instruments, New Castle, DE or DVS, DVS Intrinsic, Surface Measurement Systems, London, UK). A sample (2-20 mg) was placed in an aluminum DVS pan and loaded on the sample side of the twin pan balance. The water sorption and desorption were studied as a function of relative humidity (RH) at 25° C. In 10% RH increments, the relative humidity was increased from 5% RH to 95% RH and then decreased back to 5%. […] Data analysis was performed using Universal Analysis 2000 Version 4.7A (TA Instruments, New Castle, DE) for TA DVS runs and Microsoft Excel for SMS DVS runs.

[2] = XRPD analysis of the sample after the DVS experiment (solid form stability to humidity); conditions: after DVS cycle 5% RH to 95% RH and back at 25° C.
Procedure: X-ray powder diffraction (XRPD) analysis was conducted on a diffractometer (PANalytical XPERT-PRO, PANalytical B. V., Almelo, Netherlands) using copper radiation (Cu Kα, λ=1.541874). Samples were spread evenly on a zero background sample plate. The generator was operated at a voltage of 45 kV and amperage of 40 mA. Slits were Soller 0.02 rad, antiscatter 1.0°, and divergence. Scans were performed from 2 to 40° 2θ with a 0.0167 step size. Data analysis was performed using X′Pert Data Viewer V1.2d (PANalytical B. V., Almelo, Netherlands).
as §1

[3] = Solid form stability at ambient conditions; conditions: before KF could be run

water absorbed (dynamic vapor sorption) [1] | solid form found by XRPD after the DVS experiment [2] | stability of the polymorphic form at ambient conditions [3] | SMILES
about 38 wt. % | converted to Form VII | – | C1=C(c2ccc3cn[nH]c3c2)N=C(Nc2ccc(N3CCOCC3)cc2)C2=NCCN12.CS(=O)(=O)O.CS(=O)(=O)O [Amorphous form, 6-(1H-indazol-6-yl)-N-(4-morpholinophenyl)-2,3-dihydroimidazo[1,2-a]pyrazin-8-amine bis-mesylate]
about 30 wt. % | converted to Form VII | – | C1=C(c2ccc3cn[nH]c3c2)N=C(Nc2ccc(N3CCOCC3)cc2)C2=NCCN12.CS(=O)(=O)O.CS(=O)(=O)O [Form I, 6-(1H-indazol-6-yl)-N-(4-morpholinophenyl)-2,3-dihydroimidazo[1,2-a]pyrazin-8-amine bis-mesylate]
about 30 wt. % | converted to Form VII | – | C1=C(c2ccc3cn[nH]c3c2)N=C(Nc2ccc(N3CCOCC3)cc2)C2=NCCN12.CS(=O)(=O)O.CS(=O)(=O)O [Form II, 6-(1H-indazol-6-yl)-N-(4-morpholinophenyl)-2,3-dihydroimidazo[1,2-a]pyrazin-8-amine bis-mesylate]
~17 wt. % | converted to Form VII | – | C1=C(c2ccc3cn[nH]c3c2)N=C(Nc2ccc(N3CCOCC3)cc2)C2=NCCN12.CS(=O)(=O)O.CS(=O)(=O)O [Form VI, 6-(1H-indazol-6-yl)-N-(4-morpholinophenyl)-2,3-dihydroimidazo[1,2-a]pyrazin-8-amine bis-mesylate]
~25 wt. % | converted to Form VII | unstable at ambient conditions | C1=C(c2ccc3cn[nH]c3c2)N=C(Nc2ccc(N3CCOCC3)cc2)C2=NCCN12.CS(=O)(=O)O.CS(=O)(=O)O [Form XIII, 6-(1H-indazol-6-yl)-N-(4-morpholinophenyl)-2,3-dihydroimidazo[1,2-a]pyrazin-8-amine bis-mesylate]
about 35 wt. % | converted to Form VII | – | C1=C(c2ccc3cn[nH]c3c2)N=C(Nc2ccc(N3CCOCC3)cc2)C2=NCCN12.CS(=O)(=O)O.CS(=O)(=O)O [Form XIV, 6-(1H-indazol-6-yl)-N-(4-morpholinophenyl)-2,3-dihydroimidazo[1,2-a]pyrazin-8-amine bis-mesylate]
about 28 wt. % | converted to Form VII | – | C1=C(c2ccc3cn[nH]c3c2)N=C(Nc2ccc(N3CCOCC3)cc2)C2=NCCN12.CS(=O)(=O)O.CS(=O)(=O)O [Form XIX, 6-(1H-indazol-6-yl)-N-(4-morpholinophenyl)-2,3-dihydroimidazo[1,2-a]pyrazin-8-amine bis-mesylate]
~23 wt. % | converted to Form VII | – | C1=C(c2ccc3cn[nH]c3c2)N=C(Nc2ccc(N3CCOCC3)cc2)C2=NCCN12.CS(=O)(=O)O.CS(=O)(=O)O [Form XV, 6-(1H-indazol-6-yl)-N-(4-morpholinophenyl)-2,3-dihydroimidazo[1,2-a]pyrazin-8-amine bis-mesylate]
~28 wt. % | converted to Form VII | – | C1=C(c2ccc3cn[nH]c3c2)N=C(Nc2ccc(N3CCOCC3)cc2)C2=NCCN12.CS(=O)(=O)O.CS(=O)(=O)O [Form XVI, 6-(1H-indazol-6-yl)-N-(4-morpholinophenyl)-2,3-dihydroimidazo[1,2-a]pyrazin-8-amine bis-mesylate]
– | converted to Form VII | – | C1=C(c2ccc3cn[nH]c3c2)N=C(Nc2ccc(N3CCOCC3)cc2)C2=NCCN12.CS(=O)(=O)O.CS(=O)(=O)O [Form XVIII, 6-(1H-indazol-6-yl)-N-(4-morpholinophenyl)-2,3-dihydroimidazo[1,2-a]pyrazin-8-amine bis-mesylate]
